Assay results: patent US8618068B2, “Methods and low dose regimens for treating red blood cell disorders” (priority 2009, dated 2013)
Where “and” joins values, the source holds several entries; their conditions need not be identical. Equal entries are not always repeated.

Tests used:
[1] = Pharmacokinetics of single doses in 5 baboons; conditions: monkey, in vivo
Experimental: Pharmacokinetics analyses have been conducted with DMB and 2,2-dimethylbutyric acid neutralized with L-arginine in baboons, dogs, and rats. The AUC per dose varied between animals.
Pharmacokinetic analyses of 2,2-dimethylbutyrate was conducted as either the sodium salt or the L-arginine salt, via the oral or intravenous route, as single doses to 5 baboons at doses of 33.3, 83.3, 100, 125 or 167 mg/kg free acid.
The data collected on DMB in plasma allowed an assessment of pharmacokinetic parameters; however, since collection time points were not performed in some baboons during the terminal elimination phase, these determinations are preliminary. The AUC per dose varied between animals. The area under the plasma concentration time-curve (AUC0-24 hr) following oral administration of DMB at 83.3 or 125 mg/kg free acid (100 and 150 mg/kg with salt) ranged from 1962-9363 μmol·h/L ([…]).

[2] = test system: S. typhimurium tester strains TA98, TA100, TA1535, and TA1537; assay: Ames reverse bacterial mutagenicity test; conditions: with and without S9 mix
Experimental: (§1) The standard battery of in vitro genetic toxicity tests were conducted with DMB. These tests were conducted with positive and vehicle controls, with and without metabolic activation, as appropriate, and in accordance with accepted guidelines.
(§2) For the Ames (reverse bacterial mutagenicity test), the tester strains used in the mutagenicity assay were S. typhimurium tester strains TA98, TA100, TA1535, and TA1537 and E. coli tester strain WP2uvrA. The assay was conducted in both the presence and absence of S9 mix along with concurrent vehicle and positive controls using three plates per dose.

[3] = test system: E. coli tester strain WP2uvrA; assay: Ames reverse bacterial mutagenicity test; conditions: with and without S9 mix
Experimental: as §1, §2

fetal hemoglobin (HbF) [4] = assay: Phase 2 trial in thalassemia intermedia patients, HbF and total hemoglobin; format: in vivo, human
Experimental: A randomized, doubled blind, placebo-controlled, multiple ascending dose Phase I/II trial was conducted in 21 adult patients with beta thalassemia intermedia, including 14 patients with HbE/β^0 thalassemia from Thailand and 7 patients with β^+/β^0 thalassemia (including 12 different beta globin gene mutations). Study medication was taken as a single daily dose of DMB for 8 weeks followed minimally by a 4 week break and follow-up period. Four ascending dose levels (10, 20, 30, and 40 mg/kg/day) were sequentially evaluated in 4 dose level cohorts after the preceding dose and schedule were determined safe by an independent and unblinded Safety Monitoring Committee.
All treatment groups had two placebo patients; placebo patients in the first dose group were randomized to treatment in the second dose group. Ten patients in Thailand (all HbE type) were treated with 10 mg/kg (8 active/2 placebo) followed by eight patients in Thailand who were treated followed by 30 mg/kg (6 active/2 placebo). Eleven patients (4 That, 7 Lebanese) were treated with 20 mg/kg followed by 40 mg/kg (9 active [6 Lebanese/3 That]/2 placebo). Patients ranged in age from 17 to 49 with a median age of 31 and were comprised for 16 females and 5 males.
Patients were monitored every 2 weeks for laboratory studies, physical examinations, and adverse events. Further, patients were followed for hematologic parameters primarily focusing on hemoglobin and fetal hemoglobin (HbF). In addition, pharmacokinetic samples were obtained on Day 0 and 13, at pre-dose and 2, 4, 6, 8, 12, and 24 hours post-dosing. Hemoglobin was measured at each site using standard hematology equipment. HbF was measured using Varian HPLC. […] Adverse events in treated subjects included headache, upper respiratory infection, pyrexia, fatigue, nausea, and dizziness, but the rates of such events were not markedly different from those observed in the placebo-treated subjects.

in vivo = assay: in vivo; set-up: species or system baboon; conditions: po
Experimental: Additionally, the pharmacokinetic profile of DMB was evaluated in a female baboon who received an IV dose of 50 mg/kg and single oral doses of 100, 150 and 200 mg/kg. Following IV administration, DMB concentrations peaked at the end of dose administration and decayed in a log-linear fashion with no obvious appearance of a distribution phase and after oral administration, the concentration reached a peak within 2 hours after dosing and subsequently decayed in a log-linear fashion at all three dose levels. There was a secondary DMB peak which occurred at 6 hours after dosing of the 200 mg/kg oral dose (FIG. 4).
Vz/F was consistently smaller as the dose was increased.

[5] = Dose range-finding embryo/fetal developmental toxicity in rabbits; format: in vivo, New Zealand White rabbits
Experimental: DMB was administered orally by gavage to 4 groups of 8 time-mated female New Zealand White rabbits once daily from gestation Days 7 through 20 at dosage levels of 50, 150, 300 and 600 mg/kg/day. […] All findings at necropsy occurred sporadically in single females, with similar frequencies in the control group and/or in a non dose-related manner and were considered incidental and unrelated to administration of DMB. Mean fetal weight in the 600 mg/kg/day group was 8.6% lower than the control group. Fetal weights in the 50, 150 and 300 mg/kg/day groups and fetal survival and external morphology at all dosage levels were unaffected by test article administration.

fetal hemoglobin (HbF) [6] = assay: Phase 2 trial in sickle cell disease patients, HbF, total Hgb, fetal globin mRNA; format: in vivo, human
Experimental: A randomized, blinded dose-ranging Phase 1/2 clinical trial was performed in 24 US and Jamaican adult patients with sickle cell disease (including HbSS or S/β thalassemia). DMB was administered once daily for six week cycles of daily therapy with a 2 week treatment break between two cycles, then followed by a final 4 weeks without treatment. Three dose levels (10, 20, 30 mg/kg/day) were studied sequentially. Four out of 24 subjects were treated with placebo and 21 subjects were evaluable. Seven Patients (5 active/2 placebo) at 10 mg/kg, 6 patients (5 active/1 placebo) at 20 mg/kg, and 9 patients (7 active/1 placebo) at 30 mg/kg were randomized in the study. Patients ranged in age from 14 to 56 with a median age of 31 and were comprised of […]. Patients were followed for hematologic parameters focusing on fetal hemoglobin (HbF). HbF was measured by a Waters Empower 32 HPLC system with a Synchropak CM-300 column.

## CCC(C)(C)C(=O)[O-].[Na+] [DMB, Sodium 2,2-dimethylbutyrate]
[1]
  clearance: 0.833 to 7 mL/min/kg
[1]; half-life, range
  half-life: 1.2 to 7.9 h
[1]; median half-life
  half-life: 2.7 h
[1]; po, 125 mg/kg
  AUC(0-t): 1960 µM·h to 9360 µM·h and 226 ng·h/mL to 1080 ng·h/mL
[1]; po, Oral bioavailability over 24 hours
  bioavailability: > 60%
[2]
  cytotoxicity (background lawn growth): no cytotoxicity was observed
[2]; up to 5000 per plate
  mutation counts: No increase in mutation counts
[3]
  cytotoxicity (background lawn growth): no cytotoxicity was observed
[3]; up to 5000 per plate
  mutation counts: No increase in mutation counts
Fetal hemoglobin (HbF) [4]; 20 mg/kg group
  patients in whom total hemoglobin increased: 2 out of 9
Fetal hemoglobin (HbF) [4]; Day 55
  dose level with the largest increase in HbF: 20 mg/kg
Fetal hemoglobin (HbF) [4]; all 4 DMB dose groups, compared to minimal change in placebo
  change in HbF at Day 55: median increases
Fetal hemoglobin (HbF) [4]; all groups including placebo
  Median change from baseline to Day 55 in total hemoglobin: decreases
In vivo; female, monkey
  half-life: 2.89 to 6.92 h
In vivo; female, monkey, 100 mg/kg
  bioavailability: 71.8%
In vivo; female, monkey, 200 mg/kg
  Tmax: 1.5 to 2 h
In vivo; 200 mg/kg
  CL/F at 200 mg/kg relative to the lower doses: about ¼
[5]; 300 mg/kg/day
  maternal body weight gains and food consumption: Reduced mean maternal body weight gains and corresponding reduced mean food consumption
[5]; 600 mg/kg/day
  Mean fetal weight lower than the control group: 8.6%
[5]; 600 mg/kg/day, maternal and embryo/fetal toxicity
  acceptability of dosage for a definitive embryo/fetal development study: considered unacceptable
[5]; 50 and 150 mg/kg/day
  maternal or fetal test article-related effects: no maternal or fetal test article-related effects
[5]; any dosage level
  maternal macroscopic findings: No remarkable maternal macroscopic findings
[5]; rabbit, in vivo
  fetal weights (50, 150, 300 mg/kg/day), fetal survival and external morphology (all dosage levels): unaffected
Fetal hemoglobin (HbF) [6]; 30 mg/kg doses
  responding subjects in whom lactate dehydrogenase (LDH) declined: 4 of 5
Fetal hemoglobin (HbF) [6]; Day 97
  dose level with the largest increase in HbF: 30 mg/kg
  dose level with the largest increase in total Hgb: 30 mg/kg
Fetal hemoglobin (HbF) [6]; all 3 DMB dose groups, compared to a decrease in placebo
  change in percent HbF at Day 97: median increases
Fetal hemoglobin (HbF) [6]; all three DMB dose groups
  change in absolute HbF at Day 97: Median increases
Fetal hemoglobin (HbF) [6]; all three DMB dose groups, compared to a decrease in placebo
  change in total Hgb at Day 97: median increases
Fetal hemoglobin (HbF) [6]; in some instances (FIG. 22, 10 mg/kg)
  percentage of F-cells and percentage of fetal hemoglobin: increased throughout the treatment period
